“And” between values parts separate entries of the source, which are not always exact repeats. Equal entries are not always repeated. The source made the active and inactive calls.
Key:
SUMO-activating enzyme [1] = target: T1, SUMO-activating enzyme (Homo sapiens, UniProt Q9UBT2); assay: blockers of UBC9-mediated SUMO conjugation – biochemical, AlphaScreen, SUMOylation inhibitor project, confirmation (AID 2018); assay type: functional
SUMO-activating enzyme [2] = target: T1, SUMO-activating enzyme; assay: blockers of SAE1/SAE2–UBC9 SUMO transfer – biochemical, HTRF, uHTS, primary screen (AID 2006); assay type: protein-complex assay
[3] = target: T2, DNA dC->dU-editing enzyme APOBEC-3A (Homo sapiens, UniProt P31941); assay: A3A deaminase inhibition for selectivity – biochemical, dose response (AID 504722); assay type: functional
[4] = target: T3, DNA dC->dU-editing enzyme APOBEC-3G (Homo sapiens, UniProt Q9HC16); assay: Dose Response confirmation of small molecule APOBEC3G DNA Deaminase Inhibitors via a fluorescence-based single-stranded DNA deaminase assay. [Related pubchem assays (depositor defined):AID493012, AID493028]; assay type: functional
Leucine aminopeptidase = target: T4, Leucine aminopeptidase (Plasmodium falciparum 3D7, UniProt Q8IL11); assay: P. falciparum M17LAP inhibitors, primary screen, biochemical, fluorogenic H-Leu-NHMec substrate, 1536-well (AID 1619); assay type: functional
T4 sequence (Q8IL11 whole entry): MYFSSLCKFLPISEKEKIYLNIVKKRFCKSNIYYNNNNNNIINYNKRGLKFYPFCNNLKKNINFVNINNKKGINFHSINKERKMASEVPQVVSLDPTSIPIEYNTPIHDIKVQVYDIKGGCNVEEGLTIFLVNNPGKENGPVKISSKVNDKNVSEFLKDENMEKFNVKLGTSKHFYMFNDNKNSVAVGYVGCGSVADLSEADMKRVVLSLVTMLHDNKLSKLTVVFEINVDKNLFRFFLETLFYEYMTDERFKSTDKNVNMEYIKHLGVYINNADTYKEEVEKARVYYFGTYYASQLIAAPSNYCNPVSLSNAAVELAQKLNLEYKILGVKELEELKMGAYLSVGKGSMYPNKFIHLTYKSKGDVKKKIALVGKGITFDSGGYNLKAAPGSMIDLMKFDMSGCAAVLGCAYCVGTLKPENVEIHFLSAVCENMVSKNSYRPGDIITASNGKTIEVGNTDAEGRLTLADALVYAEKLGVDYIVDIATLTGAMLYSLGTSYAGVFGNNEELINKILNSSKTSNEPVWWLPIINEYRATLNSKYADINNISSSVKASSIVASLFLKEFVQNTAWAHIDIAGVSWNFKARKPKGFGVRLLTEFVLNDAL

Aminopeptidase N = target: T5, Aminopeptidase N (Plasmodium falciparum FcB1/Columbia, UniProt O96935); assay: malaria alanyl aminopeptidase activity blockers – biochemical, fluorogenic H-Leu-NHMec substrate, 1536-well (AID 1445); set-up: species or system Plasmodium falciparum 3D7, 3D7
T5 sequence (O96935 whole entry): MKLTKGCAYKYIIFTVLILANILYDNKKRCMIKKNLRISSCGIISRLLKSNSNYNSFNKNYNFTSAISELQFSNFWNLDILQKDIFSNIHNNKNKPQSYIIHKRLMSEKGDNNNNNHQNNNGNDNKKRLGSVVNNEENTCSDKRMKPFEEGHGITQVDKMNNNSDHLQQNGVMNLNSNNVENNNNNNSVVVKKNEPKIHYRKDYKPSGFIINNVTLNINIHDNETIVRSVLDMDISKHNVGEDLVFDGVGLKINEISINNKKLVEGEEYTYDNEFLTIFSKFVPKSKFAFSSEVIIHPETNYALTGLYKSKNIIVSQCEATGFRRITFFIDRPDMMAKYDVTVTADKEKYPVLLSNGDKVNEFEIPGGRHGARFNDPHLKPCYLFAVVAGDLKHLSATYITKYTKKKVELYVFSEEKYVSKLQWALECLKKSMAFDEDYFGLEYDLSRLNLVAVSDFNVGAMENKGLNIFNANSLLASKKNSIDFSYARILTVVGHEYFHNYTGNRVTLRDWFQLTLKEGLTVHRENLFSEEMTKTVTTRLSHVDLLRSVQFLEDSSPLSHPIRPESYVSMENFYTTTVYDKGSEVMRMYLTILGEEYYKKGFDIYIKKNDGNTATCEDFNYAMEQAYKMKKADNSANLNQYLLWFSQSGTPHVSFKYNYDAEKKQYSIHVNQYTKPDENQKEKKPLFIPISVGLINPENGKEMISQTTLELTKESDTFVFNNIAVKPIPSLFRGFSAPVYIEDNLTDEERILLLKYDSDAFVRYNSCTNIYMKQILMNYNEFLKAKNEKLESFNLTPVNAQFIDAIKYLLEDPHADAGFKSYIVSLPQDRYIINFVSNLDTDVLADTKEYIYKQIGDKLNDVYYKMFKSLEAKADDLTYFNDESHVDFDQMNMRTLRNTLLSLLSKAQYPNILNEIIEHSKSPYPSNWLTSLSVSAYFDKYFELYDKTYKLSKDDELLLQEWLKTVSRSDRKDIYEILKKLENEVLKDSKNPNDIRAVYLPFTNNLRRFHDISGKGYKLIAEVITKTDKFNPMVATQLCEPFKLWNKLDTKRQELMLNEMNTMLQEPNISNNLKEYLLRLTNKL

[5] = target: T6, RNA-binding protein pos-1 (Caenorhabditis elegans, UniProt G5EF15); assay: disruptors of C. elegans POS-1 RNA interaction – biochemical, fluorescence polarization, dose response (AID 1964);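 further: purified POS-1 fused to maltose binding protein made in E. coli; potency of compounds blocking POS-1 binding to fluorescent RNA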
T6 sequence (G5EF15 whole entry): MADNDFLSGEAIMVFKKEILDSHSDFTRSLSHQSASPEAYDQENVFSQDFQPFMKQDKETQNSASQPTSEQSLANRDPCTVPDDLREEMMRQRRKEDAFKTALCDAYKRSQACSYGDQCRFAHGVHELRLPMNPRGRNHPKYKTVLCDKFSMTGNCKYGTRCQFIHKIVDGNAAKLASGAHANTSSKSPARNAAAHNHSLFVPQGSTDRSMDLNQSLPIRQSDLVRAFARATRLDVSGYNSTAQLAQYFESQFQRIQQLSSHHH

[6] = target: T7, Zinc finger protein mex-5 (Caenorhabditis elegans, UniProt Q9XUB2); assay: potency of MEX-5 RNA-binding blockers – biochemical, C. elegans, fluorescence polarization, dose response (AID 1960)
T7 sequence (Q9XUB2 whole entry): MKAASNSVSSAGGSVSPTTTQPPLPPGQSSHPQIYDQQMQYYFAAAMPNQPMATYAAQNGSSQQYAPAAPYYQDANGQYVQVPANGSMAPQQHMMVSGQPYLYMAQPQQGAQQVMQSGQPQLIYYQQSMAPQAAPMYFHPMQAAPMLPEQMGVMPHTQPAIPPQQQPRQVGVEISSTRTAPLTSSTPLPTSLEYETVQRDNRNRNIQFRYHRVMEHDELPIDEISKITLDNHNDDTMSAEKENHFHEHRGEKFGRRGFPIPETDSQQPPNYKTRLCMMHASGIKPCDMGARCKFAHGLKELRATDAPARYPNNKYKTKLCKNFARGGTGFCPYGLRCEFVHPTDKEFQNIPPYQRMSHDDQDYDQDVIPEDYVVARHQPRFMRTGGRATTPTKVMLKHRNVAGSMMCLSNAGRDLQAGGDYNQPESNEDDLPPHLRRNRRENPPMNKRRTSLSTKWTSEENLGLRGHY

Large T antigen = Large T antigen (Simian virus 40, UniProt P03070); assay type: functional, Betapolyomavirus macacae;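 further: Confirmatory-stage PubChem screen for compounds that inhibit SV40 T antigen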
[7] = target: Induced myeloid leukemia cell differentiation protein Mcl-1 (Homo sapiens, UniProt Q07820); assay type: functional
Nonstructural protein 1 = Nonstructural protein 1 (Influenza A virus, UniProt Q194T2); assay type: functional, Influenza A virus (A/California/07/2009(H1N1))
Genome polyprotein = Genome polyprotein (dengue virus type 2, UniProt P29990); assay: flavivirus cap methylation enzyme inhibition – biochemical, confirmation dose response, primary screen (AID 588689); assay type: functional
[8] = target: G-protein coupled receptor 55 (Homo sapiens, UniProt Q9Y2T6); assay: selective activators of receptor GPR55 – imaging, U2OS cells, beta-arrestin-GFP redistribution, primary screen (AID 1961); assay type: functional
[9] = target: Glyceraldehyde-3-phosphate dehydrogenase (Homo sapiens, UniProt P04406)
[10] = target: Alkaline phosphatase, placental type (Homo sapiens, UniProt P05187); assay: human placental alkaline phosphatase inhibition – biochemical, luminescence, confirmation (AID 1512); assay type: functional
[11] = target: T8, Alkaline phosphatase, tissue-nonspecific isozyme (Homo sapiens, UniProt P05186); assay: potency against alkaline phosphatase TNAP – biochemical, luminescent, dose response, SAR follow-up (AID 1056)
T8 sequence (P05186 whole entry): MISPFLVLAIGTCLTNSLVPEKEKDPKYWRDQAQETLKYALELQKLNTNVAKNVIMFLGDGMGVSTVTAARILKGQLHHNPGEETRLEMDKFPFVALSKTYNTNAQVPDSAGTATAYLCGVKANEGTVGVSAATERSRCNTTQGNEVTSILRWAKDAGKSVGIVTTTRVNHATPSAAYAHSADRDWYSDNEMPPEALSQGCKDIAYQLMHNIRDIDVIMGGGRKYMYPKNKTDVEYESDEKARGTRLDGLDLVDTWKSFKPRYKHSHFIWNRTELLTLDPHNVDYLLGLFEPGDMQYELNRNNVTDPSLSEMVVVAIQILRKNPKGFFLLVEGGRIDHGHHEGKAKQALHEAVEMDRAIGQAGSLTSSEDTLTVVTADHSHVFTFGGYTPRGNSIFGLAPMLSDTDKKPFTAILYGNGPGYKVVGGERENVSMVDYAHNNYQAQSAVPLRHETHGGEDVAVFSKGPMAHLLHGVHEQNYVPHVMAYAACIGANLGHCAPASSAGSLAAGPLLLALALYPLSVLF

[12] = target: T2, DNA dC->dU-editing enzyme APOBEC-3A; assay: Dose Response confirmation of small molecule APOBEC3A DNA Deaminase Inhibitors via a fluorescence-based single-stranded DNA deaminase assay. [Related pubchem assays (depositor defined):AID493011, AID493024]; assay type: functional
[13] = target: T3, DNA dC->dU-editing enzyme APOBEC-3G; assay type: functional
[14] = target: T9, Carboxy-terminal domain RNA polymerase II polypeptide A small phosphatase 1 (Homo sapiens, UniProt Q9GZU7); assay: CTDSP1 inhibitors, concentration-response, biochemical, absorbance readout, ultra-high-throughput screen actives (AID 540297); assay type: functional
T9 sequence (Q9GZU7 whole entry): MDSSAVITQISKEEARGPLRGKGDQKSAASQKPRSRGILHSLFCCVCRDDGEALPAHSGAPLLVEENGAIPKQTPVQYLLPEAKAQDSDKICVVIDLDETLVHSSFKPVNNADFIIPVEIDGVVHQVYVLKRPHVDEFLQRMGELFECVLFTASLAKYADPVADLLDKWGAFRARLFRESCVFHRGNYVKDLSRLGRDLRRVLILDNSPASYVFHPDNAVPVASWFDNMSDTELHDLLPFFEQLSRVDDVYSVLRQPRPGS

Hexokinase = target: T10, Hexokinase (Trypanosoma brucei, UniProt Q38C41); assay: Confirmation assay for inhibitors of Trypanosoma brucei hexokinase 1-Analogue-first series. [Related pubchem assays (depositor defined):AID1430, AID1632, AID2516, AID2560, AID2579, AID2600, AID449725, AID492951]; assay type: functional
T10 sequence (Q38C41 whole entry): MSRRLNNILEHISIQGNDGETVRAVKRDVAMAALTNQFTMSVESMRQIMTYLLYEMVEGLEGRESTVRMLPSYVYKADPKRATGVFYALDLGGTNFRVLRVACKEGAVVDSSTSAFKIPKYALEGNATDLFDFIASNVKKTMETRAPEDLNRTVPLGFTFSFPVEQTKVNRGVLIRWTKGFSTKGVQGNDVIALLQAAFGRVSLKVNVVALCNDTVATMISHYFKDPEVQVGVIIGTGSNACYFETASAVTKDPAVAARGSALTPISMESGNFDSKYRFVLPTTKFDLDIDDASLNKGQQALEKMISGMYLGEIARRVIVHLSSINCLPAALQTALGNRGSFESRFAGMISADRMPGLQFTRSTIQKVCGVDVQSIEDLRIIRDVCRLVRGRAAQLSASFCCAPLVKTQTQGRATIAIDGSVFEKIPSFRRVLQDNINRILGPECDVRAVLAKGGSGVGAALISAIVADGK

Compound: COc1ccc(C)c2sc(NC(=O)c3cccc(N4C(=O)CCC4=O)c3)nc12
- IC50 (SUMO-activating enzyme [1]): 9.99 µM (active)
- IC50 (SUMO-activating enzyme [2]): 6.1 µM (active)

Compound: COc1cccc(C(=O)NCc2nnc(S)n2-c2cccc(C)c2)c1
- IC50 [3]: > 100 µM (inactive)
- IC50 [4]: 12.8 µM (active)

Compound: O=C(O)c1ccccc1NS(=O)(=O)c1ccc(NNC(=S)Nc2ccc(OC(F)F)cc2)c([N+](=O)[O-])c1
- IC50 (Leucine aminopeptidase): 5.33 µM (active)
- IC50 (Aminopeptidase N): 17.3 µM (active)
- EC50 [5]: 7.38 µM (active)
- EC50 [6]: 5.57 µM (active)
- IC50 (Large T antigen): 29.8 µM (active)
- IC50 [7]: 2.95 µM (active)
- IC50 (Nonstructural protein 1): 13 µM (active)
- IC50 (Genome polyprotein): 18.5 µM (active)

Compound: COc1ccc(-c2cc(C(=O)Nc3cc(S(=O)(=O)N4CCOCC4)ccc3N3CCOCC3)c3ccccc3n2)cc1
- EC50 [8]: 1.68 µM (active)

Compound: O=C1CC(c2ccccc2)Cc2[nH]ncc21 (stereo not drawn)
- IC50 [9]: > 100 µM (not active)
- IC50 [10]: > 100 µM (inactive)
- IC50 [11]: > 100 µM (inactive)

Compound: Cc1ccc(-c2nc3ccccc3[nH]2)cc1NC(=S)NC(=O)c1ccccc1Br
- EC50 [8]: 2.9 µM (active)

Compound: CCc1nc(CNC(=O)c2cc(OC)c(OC)c(OC)c2)no1
- IC50 [12]: 2.24 µM (active)
- IC50 [13]: 3.11 µM (active)

Compound: Cc1ccc(C)c(NC(=O)Cn2cc(C(=O)C3CC3)c3ccccc32)c1
- IC50 [12]: 6.88 µM (active)
- IC50 [13]: 6.11 µM (active)

Compound: Cc1cc(Br)ccc1NC(=O)CN(C)C(=O)Cn1c(=O)cnc2ccccc21
- IC50 [12]: 5.76 µM (active)
- IC50 [13]: 6.85 µM (active)
- IC50 [14]: 7.57 µM (active)

Compound: COc1ccc(C(=O)Nc2ccccc2-c2nn[nH]n2)cc1
- IC50 (Hexokinase): > 25 µM (inactive)

Compound: CC(C)(C)OC(=O)NC1(C(Cl)(Cl)Cl)Oc2ccccc2O1
- IC50 [10]: > 100 µM (inactive)
- IC50 [11]: > 100 µM (inactive)

Compound: COc1ccc(C(=O)Nc2cc(Cl)ccc2C(=O)O)cc1OC
- IC50 (Hexokinase): 15.5 µM (active)

Compound: Sc1nc(-c2ccccc2)cn1/N=C/c1cccnc1
- IC50 [3]: > 100 µM (inactive)
- IC50 [4]: 4.77 µM (active)

Compound: COC(=O)c1cc(-c2ccc(Cl)cc2Cl)n[nH]1
- IC50 [9]: > 100 µM (not active)
- IC50 [10]: > 100 µM (inactive)
- IC50 [11]: 264 nM (active) and 315 nM (active)
